Assay results: patent US4847302A, “Use of certain compounds in livestock food as growth promotants for better feed utilization and improved carcass composition” (Merck & Co., Inc., priority 1988, dated 1989)

Assay: Growth promoting activity / feed utilization in livestock (general statements)
Assay type: in vivo
Conditions: in vivo

With `C[C@H](CCc1ccccc1)NC[C@H](O)c1ccc(N)nc1` [α-R,1R compound] the “activity compared with the other optical isomers of compound IV” value was “significantly more active than the most active of the other isomers”.
